Data taken from patent US9308223B2, “Om vitamin formula” (priority 2008, dated 2016).

System: ill-health symptoms of Lead intoxication
Test: Inventor's trial-and-error self-administration of vitamins to alleviate Lead intoxication symptoms
Type: in vivo, human
Details: for soothing of Lead intoxication symptoms: Beta Carotene around 20,000 I.U. and vitamin E around 100 I.U. in the formula, Lead intoxication with no other health conditions
Text: I was already taking vitamins, so I started working with variety of vitamins in varying doses to alleviate the suffering. This was like an experiment on my body to find a balanced dose to alleviate Lead intoxication symptoms. It took me one and half decade to find the correct mix and proportion of vitamins. I will explain later why it took me so many years.
Vitamins dose was working correctly, however, I was taking certain quantity of milk (Calcium) in my diet so dose was adjusted with certain quantity of milk also. […] However, most of the symptoms as described earlier were alleviated with vitamins. In 2001, dizziness was extreme and glucose test was very close to borderline. Additional symptoms like some weight gain, elevated blood pressure and elevated cholesterol were noted. I realized immediately that I have done something wrong in working out the vitamin dose for Lead intoxication so I reversed engineering to figure out the dose with less quantity of milk. In 2005-2006 timeframe, I started gaining confidence that vitamin dose to cure Lead intoxication is absolutely correct and I decided to file the patent papers. […] I wish I could have this dose in 1990 then I didn't have to go through all the suffering and pain from 1990-2005, almost fifteen years. Therefore the vitamin dose or multi-vitamin formula for Lead intoxication is determined by trial and error method and is the result of fifteen years of work. Sometimes God makes the things happen for purpose and I was chosen the vehicle.
All these symptoms depend upon the amount of lead in body and the kind of diet and vitamins I was taking. I went through lot of ups and downs in figuring out the vitamin dose or formula to cure Lead induced ill-health symptoms. I gained so much experience by working trial and error methods on vitamins that I could simulate most of these symptoms in my body. […] I have shown this formula below as OM-50 dose, primarily because some vitamins' quantities are in 50 unit. Multiply all the ingredients by 2 will give OM-100, and divide by 2 will give OM-25, and so on.

| Molecule | effectiveness during heavy bleeding and/or elevated sugar level (Beta Carotene 30,000 I.U. in the formula, Lead intoxication plus heavy bleeding and/or elevated sugar level) | soothing of Lead intoxication symptoms |
| --- | --- | --- |
| CC1=C(/C=C/C(C)=C/C=C/C(C)=C/C=C/C=C(C)/C=C/C=C(C)/C=C/C2=C(C)CCCC2(C)C)C(C)(C)CCC1 [Beta Carotene] | very effective | soothe very effectively |
| vitamin E |  | soothe very effectively |
